Experiments:
Abutilon theophrasti = assay: Weeding effect in post-emergence stage (greenhouse pot spray); type: in vivo; conditions: for Abutilon theophrasti (activity level): Table 3, dose 60 g a.i./ha
Method in brief: (§1)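 Fresh-weight control rate was assessed 3 weeks after post-emergence spray-tower application at doses of 500–15 g a.i./ha, triplicate. Weeds were treated at the 2–3 leaf stage, 2 weeks post-sowing, using acetone solutions with Tween 80 plus 1.5 L/ha methyl oleate emulsifiable concentrate.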

Digitaria sanguinalis = assay: as above; type: in vivo; conditions: for Digitaria sanguinahs (activity level): Table 3, dose 60 g a.i./ha
Method in brief: as §1

Echinochloa crusgalli = assay: as above; type: in vivo
Method in brief: as §1

Amaranthus retroflexus = assay: as above; type: in vivo
Method in brief: as §1

Stellaria media = assay: as above; type: in vivo
Method in brief: as §1

[1] = system: Indica rice (Huanghuazhan); assay: Safety test of control experiments on rice; type: in vivo; conditions: Dose 250 g a.i./ha
Text: (§2) The activity level criteria for plant damage (i.e., growth control rate) are as follows: Comparative Experiments: [table]

[2] = system: Japonica rice (Huaidao No. 5); assay: Safety test of control experiments on rice; type: in vivo; conditions: Dose 250 g a.i./ha
Text: as §2

[3] = system: rice and Echinochloa crusgali; assay: Herbicide selection index between rice and Echinochloa crusgali; type: in vivo; conditions: average dose causing 10% phytotoxicity to rice divided by average dose causing 90% control efficiency to Echinochloa crusgali
Echinochloa crusgali = assay: Transplanted rice safety evaluation and weed control effect evaluation in rice field; type: in vivo; conditions: Table 7, dose 125 g a.i./ha, 14 days after treatment
Text: (§3) Transplanted rice safety evaluation and weed control effect evaluation in rice field:
(§4) Rice field soil was loaded into a 1/1,000,000 ha pot. The seeds of echinochloa crusgali, scirpus juncoides, Bidens tripartita, Sagittaria trifolia, Monochoria vaginalis and Leptochloa chinensis were sowed and gently covered with soil, then left to stand still in greenhouse in the state of 0.5-1 cm of water storage. The tuber of Sagittaria trifolia was planted in the next day or 2 days later. It was kept at 3-4 cm of water storage thereafter. The weeds were treated by dripping the WP or SC water diluents prepared according to the common preparation method of the compounds of the present invention with pipette homogeneously to achieve specified effective amount when echinochloa crusgali, scirpus juncoides, Bidens tripartita, Monochoria vaginalis and Leptochloa chinensis reached 0.5 leaf stage and Sagittaria trifolia reached the time point of primary leaf stage.
(§5) The fertility condition of echinochloa crusgali, scirpus juncoides, Bidens tripartita, Leptochloa chinensis, Sagittaria trifolia and Monochoria vaginalis 14 days after the treatment of the compound of the invention and the fertility condition of rice 21 days after the treatment of the compound of the invention respectively with the naked eye. Evaluate the weed control effect with 0-5 activity standard level. Many compounds show excellent activity and selectivity.

Monochoria vaginalis = assay: as above; type: in vivo; conditions: Table 7, dose 125 g a.i./ha, 14 days after treatment
Text: as §3, §4, §5

Scirpus juncoides = assay: as above; type: in vivo; conditions: Table 7, dose 125 g a.i./ha, 14 days after treatment
Text: as §3, §4, §5

Rice = assay: as above; type: in vivo, rice (japonica rice/Indica rice); conditions: Table 7, dose 125 g a.i./ha, 21 days after treatment
Method: as §3
In addition, the rice field soil that loaded into the 1/1,000,000 ha pot was leveled to keep water storage at 3-4 cm depth. The 3 leaf stage rice (japonica rice/Indica rice) was transplanted at 3 cm of transplanting depth the next day. The compound of the present invention was treated by the same way after 5 days of transplantation.
as §5

Setaria viridis = assay: Weeding effect in post-emergence stage (greenhouse pot spray); type: in vivo; conditions: Table 3, dose 60 g a.i./ha
Method in brief: as §1

Row | Compound | Indica rice (Huanghuazhan) (plant damage level) [1] | Japonica rice (Huaidao No. 5) (plant damage level) [2] | Selection index between rice and Echinochloa crusgali [3] | Echinochloa crusgali (activity level) (Echinochloa crusgali) | Monochoria vaginalis (activity level) (Monochoria vaginalis) | Scirpus juncoides (activity level) (Scirpus juncoides) | Rice (safety level) (Rice) | Abutilion theophrasti (activity level) (Abutilon theophrasti; Table 2, dose 125 g a.i./ha) | Abutilion theophrasti (activity level) (Abutilon theophrasti; Table 2, dose 250 g a.i./ha) | Digitaria sanguinalis (activity level) (Digitaria sanguinalis; Table 2, dose 125 g a.i./ha) | Digitaria sanguinalis (activity level) (Digitaria sanguinalis; Table 2, dose 250 g a.i./ha) | Echinochloa crusgah (activity level) (Echinochloa crusgalli; Table 2, dose 125 g a.i./ha) | Echinochloa crusgah (activity level) (Echinochloa crusgalli; Table 2, dose 250 g a.i./ha) | Amaranthus retroflexus (activity level) (Amaranthus retroflexus; Table 2, dose 125 g a.i./ha) | Amaranthus retroflexus (activity level) (Amaranthus retroflexus; Table 2, dose 250 g a.i./ha) | Stellaria media (activity level) (Stellaria media; Table 2, dose 125 g a.i./ha) | Stellaria media (activity level) (Stellaria media; Table 2, dose 250 g a.i./ha) | Abutilon theophrasti (activity level) (Abutilon theophrasti) | Digitaria sanguinahs (activity level) (Digitaria sanguinalis) | Setaria viridis (activity level) (Setaria viridis) | other results
1 | COCC[S+]([O-])c1c(C(F)(F)F)ccc(C(=O)Nc2nnc(C)o2)c1F (racemic) [Compound 1-57] | 0 (Level 0: growth control rate is less than 5%) | 0 (Level 0: growth control rate is less than 5%) | >5 | 5 (Level 5: growth control rate is above 85%) | 5 (Level 5: growth control rate is above 85%) | 5 (Level 5: growth control rate is above 85%) | 0 (Level 0: growth control rate is less than 5%) | – | – | – | – | – | – | – | – | – | – | – | – | – | Abutilion theophrasti (activity level) (Abutilon theophrasti; Table 2, dose 500 g a.i./ha): 5 (Level 5: growth control rate is above 85%); Digitaria sanguinalis (activity level) (Digitaria sanguinalis; Table 2, dose 500 g a.i./ha): 5 (Level 5: growth control rate is above 85%); Echinochloa crusgah (activity level) (Echinochloa crusgalli; Table 2, dose 500 g a.i./ha): 5 (Level 5: growth control rate is above 85%); Amaranthus retroflexus (activity level) (Amaranthus retroflexus; Table 2, dose 500 g a.i./ha): 5 (Level 5: growth control rate is above 85%); Stellaria media (activity level) (Stellaria media; Table 2, dose 500 g a.i./ha): 5 (Level 5: growth control rate is above 85%)
2 | CCS(=O)(=O)c1c(C(F)(F)F)ccc(C(=O)Nc2nnc(C)o2)c1F [Compound 1-6] | 0 (Level 0: growth control rate is less than 5%) | 0 (Level 0: growth control rate is less than 5%) | >5 | 5 (Level 5: growth control rate is above 85%) | 5 (Level 5: growth control rate is above 85%) | 5 (Level 5: growth control rate is above 85%) | 0 (Level 0: growth control rate is less than 5%) | 5 (Level 5: growth control rate is above 85%) | 5 (Level 5: growth control rate is above 85%) | 5 (Level 5: growth control rate is above 85%) | 5 (Level 5: growth control rate is above 85%) | 5 (Level 5: growth control rate is above 85%) | 5 (Level 5: growth control rate is above 85%) | 5 (Level 5: growth control rate is above 85%) | 5 (Level 5: growth control rate is above 85%) | 5 (Level 5: growth control rate is above 85%) | 5 (Level 5: growth control rate is above 85%) | – | – | – | –
3 | Cc1nnc(NC(=O)c2ccc(C(F)(F)F)c(SC3CC3)c2F)o1 [Compound 1-76] | – | – | – | 5 (Level 5: growth control rate is above 85%) | 5 (Level 5: growth control rate is above 85%) | 5 (Level 5: growth control rate is above 85%) | 0 (Level 0: growth control rate is less than 5%) | – | – | – | – | – | – | – | – | – | – | – | – | – | –
4 | CC[S+]([O-])c1c(C(F)(F)F)ccc(C(=O)Nc2nnc(C)o2)c1F (stereo not drawn) [Compound 1-5] | 0 (Level 0: growth control rate is less than 5%) | 0 (Level 0: growth control rate is less than 5%) | >5 | 5 (Level 5: growth control rate is above 85%) | 5 (Level 5: growth control rate is above 85%) | 5 (Level 5: growth control rate is above 85%) | 0 (Level 0: growth control rate is less than 5%) | 5 (Level 5: growth control rate is above 85%) | – | 5 (Level 5: growth control rate is above 85%) | – | 5 (Level 5: growth control rate is above 85%) | – | 5 (Level 5: growth control rate is above 85%) | – | 5 (Level 5: growth control rate is above 85%) | – | 5 (Level 5: growth control rate is above 85%) | 5 (Level 5: growth control rate is above 85%) | 5 (Level 5: growth control rate is above 85%) | Abutilion theophrasti (activity level) (Abutilon theophrasti; Table 2, dose 60 g a.i./ha): 5 (Level 5: growth control rate is above 85%); Digitaria sanguinalis (activity level) (Digitaria sanguinalis; Table 2, dose 60 g a.i./ha): 5 (Level 5: growth control rate is above 85%); Echinochloa crusgah (activity level) (Echinochloa crusgalli; Table 2, dose 60 g a.i./ha): 5 (Level 5: growth control rate is above 85%); Echinochloa crusgali (activity level) (Echinochloa crusgalli; Table 3, dose 60 g a.i./ha): 5 (Level 5: growth control rate is above 85%); Amaranthus retroflexus (activity level) (Amaranthus retroflexus; Table 2, dose 60 g a.i./ha): 5 (Level 5: growth control rate is above 85%); Stellaria media (activity level) (Stellaria media; Table 2, dose 60 g a.i./ha): 5 (Level 5: growth control rate is above 85%)
5 | CCCC[S+]([O-])c1c(C(F)(F)F)ccc(C(=O)Nc2nnc(C)o2)c1F (racemic) [Compound 1-14] | 0 (Level 0: growth control rate is less than 5%) | 0 (Level 0: growth control rate is less than 5%) | >5 | 5 (Level 5: growth control rate is above 85%) | 5 (Level 5: growth control rate is above 85%) | 5 (Level 5: growth control rate is above 85%) | 0 (Level 0: growth control rate is less than 5%) | 5 (Level 5: growth control rate is above 85%) | – | 5 (Level 5: growth control rate is above 85%) | – | 5 (Level 5: growth control rate is above 85%) | – | 5 (Level 5: growth control rate is above 85%) | – | 5 (Level 5: growth control rate is above 85%) | – | 5 (Level 5: growth control rate is above 85%) | 5 (Level 5: growth control rate is above 85%) | 5 (Level 5: growth control rate is above 85%) | –
6 | Cc1nnc(NC(=O)c2ccc(C(F)(F)F)c([S+]([O-])C(C)C)c2F)o1 (racemic) [Compound 1-11] | – | – | – | 5 (Level 5: growth control rate is above 85%) | 5 (Level 5: growth control rate is above 85%) | 5 (Level 5: growth control rate is above 85%) | 0 (Level 0: growth control rate is less than 5%) | – | 5 (Level 5: growth control rate is above 85%) | – | 5 (Level 5: growth control rate is above 85%) | – | 5 (Level 5: growth control rate is above 85%) | – | 5 (Level 5: growth control rate is above 85%) | – | 5 (Level 5: growth control rate is above 85%) | – | – | – | –

From patent publication US20230041563A1, “N-(1,3,4-OXADIAZOL-2-YL)ARYLCARBOXAMIDES OR SALTS THEREOF, PREPARATION METHODS, HERBICIDAL COMPOSITIONS AND USES THEREOF” (priority 2018, published 2023)
